Data as given in the supplement of paper PMC10627819.

Experiments:
[1] = system: S. aureus DSM 20231; assay: fitness (endpoint OD595 vs no drug) (fraction); higher = more growth
In short: (§1)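 Each well of a 384-well plate received 30 µl of culture at OD595 0.01, or 55 µl for S. pneumoniae. TSB, LB Lennox or CY served as media at 37 °C. OD595 was taken every 30 min for 14 h and corrected by subtracting the first reading. Fitness is the optical density at stationary-phase entry divided by the robust mean of no-drug controls, capped at 1.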

[2] = system: S. aureus Newman; assay: as above
In short: as §1

[3] = system: S. pneumoniae D39V; assay: as above
In short: as §1

[4] = system: B. subtilis 168; assay: Bliss interaction score (quartile over a dose matrix) (fitness difference); higher = more antagonism (negative = synergy)
In short: (§2)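 The Bliss score takes observed fitness and subtracts the expected fitness, calculated as a product of single-drug fitness values. Those single-drug values were inferred from the combination data. Fitness is OD595 at entry into stationary phase divided by the plate's robust no-drug mean, capped at 1, and the score is summarised by quartiles across technical, biological and donor/recipient replicates.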

[5] = system: S. aureus DSM 20231; assay: as above
In short: as §2

[6] = system: S. aureus Newman; assay: as above
In short: as §2

[7] = system: S. pneumoniae D39V; assay: as above
In short: as §2
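For Bliss interaction score (quartile over a dose matrix) in this document: first quartile when negative (synergy) and third quartile when positive (antagonism).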

CC1(C)S[C@@H]2[C@H](NC(=O)[C@H](N)c3ccc(O)cc3)C(=O)N2[C@H]1C(=O)O [Amoxicillin] + COc1c(N2C[C@@H]3CCCN[C@@H]3C2)c(F)cc2c(=O)c(C(=O)O)cn(C3CC3)c12 [Moxifloxacin]
Settings	fitness
[1], first compound 0.0625 µg/mL, partner 0.0075 µg/mL	0.51
[1], first compound 0.0625 µg/mL, partner 0.015 µg/mL	0.482
[1], first compound 0.0625 µg/mL, partner 0.03 µg/mL	0.403
[1], first compound 0.125 µg/mL, partner 0.0075 µg/mL	0.382
[1], first compound 0.125 µg/mL, partner 0.015 µg/mL	0.374
[1], first compound 0.125 µg/mL, partner 0.03 µg/mL	0.203
[1], first compound 0.25 µg/mL, partner 0.0075 µg/mL	0.152
[1], first compound 0.25 µg/mL, partner 0.015 µg/mL	0.119
[1], first compound 0.25 µg/mL, partner 0.03 µg/mL	0.034
[1], first compound 0.5 µg/mL, partner 0.0075 µg/mL	0.0102
[1], first compound 0.5 µg/mL, partner 0.015 µg/mL	0.0002
[1], first compound 0.5 µg/mL, partner 0.03 µg/mL	0.0026
[2], first compound 0.0625 µg/mL, partner 0.0075 µg/mL	0.715
[2], first compound 0.0625 µg/mL, partner 0.015 µg/mL	0.609
[2], first compound 0.125 µg/mL, partner 0.0075 µg/mL	0.705
[3], first compound 0.0008 µg/mL, partner 0.005 µg/mL	0.968
[3], first compound 0.0008 µg/mL, partner 0.01 µg/mL	0.977
[3], first compound 0.0008 µg/mL, partner 0.02 µg/mL	0.913
[3], first compound 0.0015 µg/mL, partner 0.005 µg/mL	0.972
[3], first compound 0.0015 µg/mL, partner 0.01 µg/mL	0.967
[3], first compound 0.0015 µg/mL, partner 0.02 µg/mL	0.905
[3], first compound 0.0015 µg/mL, partner 0.0312 µg/mL	0.314
[3], first compound 0.0015 µg/mL, partner 0.0625 µg/mL	0.147
[3], first compound 0.0015 µg/mL, partner 0.125 µg/mL	0.0837
[3], first compound 0.003 µg/mL, partner 0.005 µg/mL	0.92
[3], first compound 0.003 µg/mL, partner 0.01 µg/mL	0.92
[3], first compound 0.003 µg/mL, partner 0.02 µg/mL	0.901
[3], first compound 0.003 µg/mL, partner 0.0312 µg/mL	0.277
[3], first compound 0.003 µg/mL, partner 0.0625 µg/mL	0.211
[3], first compound 0.003 µg/mL, partner 0.125 µg/mL	0.0689

one replicate
Settings	fitness
[1], first compound 0.125 µg/mL, partner 0.06 µg/mL	0.388
[1], first compound 0.125 µg/mL, partner 0.12 µg/mL	0.0813
[1], first compound 0.25 µg/mL, partner 0.06 µg/mL	0.112
[1], first compound 0.25 µg/mL, partner 0.12 µg/mL	0.0126
[1], first compound 0.5 µg/mL, partner 0.06 µg/mL	0.0085
[1], first compound 0.5 µg/mL, partner 0.12 µg/mL	0.0156
[3], first compound 0.0008 µg/mL, partner 0.0312 µg/mL	0.209
[3], first compound 0.0008 µg/mL, partner 0.0625 µg/mL	0.167
[3], first compound 0.0008 µg/mL, partner 0.125 µg/mL	0.103
[3], first compound 0.006 µg/mL, partner 0.0312 µg/mL	0.0891
[3], first compound 0.006 µg/mL, partner 0.0625 µg/mL	0.0684
[3], first compound 0.006 µg/mL, partner 0.125 µg/mL	0.0138

Settings	Bliss interaction score
[4]	0.0481
[5]	-0.0301
[6]	0.046
[7]	0.0639

CC1(C)S[C@@H]2[C@H](NC(=O)[C@H](N)c3ccc(O)cc3)C(=O)N2[C@H]1C(=O)O [Amoxicillin] + COc1cccc2c1C(=O)c1c(O)c3c(c(O)c1C2=O)C[C@@](O)(C(=O)CO)C[C@@H]3O[C@H]1C[C@H](N)[C@H](O)[C@H](C)O1 [Doxorubicin]
Settings	fitness
[1], first compound 0.0625 µg/mL, partner 0.625 µg/mL	0.541
[1], first compound 0.0625 µg/mL, partner 1.25 µg/mL	0.511
[1], first compound 0.0625 µg/mL, partner 2.5 µg/mL	0.493
[1], first compound 0.125 µg/mL, partner 0.625 µg/mL	0.443
[1], first compound 0.125 µg/mL, partner 1.25 µg/mL	0.423
[1], first compound 0.125 µg/mL, partner 2.5 µg/mL	0.461
[1], first compound 0.25 µg/mL, partner 0.625 µg/mL	0.187
[1], first compound 0.5 µg/mL, partner 0.625 µg/mL	0.0064
[1], first compound 0.5 µg/mL, partner 1.25 µg/mL	0
[1], first compound 0.5 µg/mL, partner 2.5 µg/mL	0.012
[2], first compound 0.0625 µg/mL, partner 0.625 µg/mL	0.756
[2], first compound 0.0625 µg/mL, partner 1.25 µg/mL	0.738
[2], first compound 0.0625 µg/mL, partner 2.5 µg/mL	0.686
[2], first compound 0.125 µg/mL, partner 0.625 µg/mL	0.774
[2], first compound 0.125 µg/mL, partner 1.25 µg/mL	0.742
[2], first compound 0.125 µg/mL, partner 2.5 µg/mL	0.79
[2], first compound 0.25 µg/mL, partner 0.625 µg/mL	0.729
[2], first compound 0.25 µg/mL, partner 1.25 µg/mL	0.735
[2], first compound 0.25 µg/mL, partner 2.5 µg/mL	0.712
[3], first compound 0.0008 µg/mL, partner 0.25 µg/mL	0.961
[3], first compound 0.0008 µg/mL, partner 0.5 µg/mL	0.941
[3], first compound 0.0008 µg/mL, partner 1 µg/mL	0.882
[3], first compound 0.0015 µg/mL, partner 0.25 µg/mL	0.892
[3], first compound 0.0015 µg/mL, partner 0.5 µg/mL	0.855
[3], first compound 0.0015 µg/mL, partner 1 µg/mL	0.921
[3], first compound 0.003 µg/mL, partner 0.25 µg/mL	0.838
[3], first compound 0.003 µg/mL, partner 0.5 µg/mL	0.837
[3], first compound 0.003 µg/mL, partner 1 µg/mL	0.788

[3], first compound 0.006 µg/mL, one replicate
Settings	fitness
partner 0.25 µg/mL	0.317
partner 0.5 µg/mL	0.314
partner 1 µg/mL	0.399

Settings	Bliss interaction score
[4]	0.0583
[5]	0.0943
[6]	-0.0449
[7]	-0.071
